# Measured values taken from US6677315B2, “Nucleosides for imaging and treatment applications” (The United States of America as represented by the …, priority 1997, dated 2004).
# Legend:
# [1] = system: thymidylate synthase (TS) in cell extracts of the other cell lines; assay: Methylation of FAUMP by thymidylate synthase in cell extracts (tritium release), other cell lines; assay type: biochemical, human; murine; details: 20 μM substrate, tritiated water release
# Method: (§1) When TS adds a methyl group to the 5-position of dUMP to generate dTMP, the proton at that location is released. When [5-^3H]dUMP is the substrate, TS activity in cell extracts can be assessed by monitoring the accumulation rate of tritiated water. Here, [5-^3H]FAUMP was used as the substrate for methylation by TS, and the generation of FMAUMP was determined from the release of tritiated water. Cell extracts were prepared from each cell line by sonication of intact cells. (See: Armstrong R D, Diasio R B. “Improved Measurement of Thymidylate Synthetase Activity by a Modified Tritium-Release Assay” J. Biochem. Biophys. Methods. 1982; 6: 141-7 and Speth P A J, Kinsella T J, Chang A E, Klecker R W, Belanger K. Collins J M. “Incorporation of Iododeoxyuridine into DNA of Hepatic Metastases Versus Normal Human Liver” Clin. Pharmacol. Ther. 1988; 44:369-75.) The methyl donor was provided by 5,10-methylene tetrahydrofolate, which was generated in situ by the addition of formaldehyde to tetrahydrofolate. At various times after the addition of substrate (20 μM of either [5-^3H]dUMP or [5-^3H]FAUMP), the reaction was stopped by addition of HCl. Unreacted substrate was separated from tritiated water by adsorption onto activated charcoal. After centrifugation, an aliquot of the supernatant was counted for tritiated water.
# [2] = molecular target: T1, thymidylate synthase (TS) in U-937 cell extracts (Homo sapiens, UniProt P04818); assay: Methylation of FAUMP by thymidylate synthase in cell extracts (tritium release); assay type: biochemical; details: 20 μM substrate, tritiated water release
# T1 construct: Cell extracts were prepared from each cell line by sonication of intact cells; endogenous in cells; host or cells: U-937 cells (sonicated extract)
# Method: as §1
# [3] = FAU plasma concentrations in mice during oral dosing (HPLC); assay type: in vivo; details: oral gavage 5 g/kg once per day for 14 days
# Method: (§2) The toxicity of the compounds of the present invention has been evaluated in an animal model system. FAU was administered by oral gavage to mice at a dose of 5 g/kg once per day for 14 consecutive days. After an additional 14 days of observation following this dosing period, the animals were sacrificed. […] Blood samples were obtained at various times during this treatment, to confirm that the drug was adequately absorbed. HPLC analysis of these samples indicated FAU concentrations in plasma reached maximum levels of 750 micromolar and minimum levels of 50 micromolar.
# [4] = system: MOLT-4 cells; assay: Intracellular nucleotide formation and incorporation into DNA; assay type: cell-based, human; details: MOLT-4, 10 μM FAU for 24 hours
# Method: (§3) The human-derived cell lines CEM, MOLT-4, RAJI, U-937, K-562 and the murine-derived L1210 were purchased from the American Type Culture Collection, Rockville, Md. Cells were grown and maintained as a suspension culture in RPMI 1640 medium containing L-glutamine and 10%(v/v) heat-inactivated fetal calf serum (BRL-GIBCO, Rockville, Md.). Penicillin-streptomycin solution (Sigma Chemical Co., St. Louis, Mo.) was added to achieve a final concentration of 100 units/mL. and 100 μg/mL respectively.
# (§4) All cell lines, except for L1210, were resuspended in fresh media at 300,000 cells/mL with appropriate amount of radioactive drug. L1210 cells were resuspended at 150,000 cells/mL. After 24 hours at 37° C. in a humidified 5% CO2 atmosphere, cells were harvested for nucleotide measurement and DNA incorporation. Soluble nucleotides were determined for each cell line following exposure to 10 μM FAU. Incorporation of FAU into DNA (as FMAU) was determined over a range of FAU concentrations from 1 μM to 1 mM. As described previously by Klecker, R W, Katki A G, Collins J M. in “Toxicity, Metabolism, DNA Incorporation with Lack of Repair, and Lactate Production for 1-(2′-Fluoro-2′-deoxy-β-D-arabinofuranosyl)-5-iodouracil in U-937 and MOLT-4-cells”, Mol. Pharmacol. 1994; 46;1204-1209; and Speth P A J, Kinsella T J, Chang A E, Klecker R W, Belanger K. Collins J M. in “Incorporation of Iododeoxyuridine into DNA of Hepatic Metastases Versus Normal Human Liver.” Clin. Pharmacol. Ther. 1988; 44:369-75, DNase I and phosphodiesterase I were used to release the bases from DNA. These bases and soluble nucleotides were determined by previously reported HPLC-based methods as noted by Klecker et al. in the previously mentioned reference, “Toxicity, Metabolism, DNA Incorporation with Lack of Repair, and Lactate Production for 1-(2′-fluoro-2′-deoxy-β-D-arabinofuranosyl)-5-iodouracil in U-937 and MOLT-4-cells.” Drug incorporation into cellular DNA was determined using the equation: percent incorporation=100×([drug]/([dThd]+[drug]).
# [5] = system: CEM cells; assay: as above; assay type: cell-based, human; details: 10 μM FAU for 24 hours
# Method: as §3, §4
# [6] = system: RAJI cells; assay: as above; assay type: cell-based, human; details: 10 μM FAU for 24 hours
# Method: as §3, §4
# [7] = system: U-937 cells; assay: as above; assay type: cell-based, human; details: U-937, 10 μM FAU for 24 hours
# Method: as §3, §4
# [8] = system: K-562 cells; assay: as above; assay type: cell-based, human; details: K-562, 10 μM FAU for 24 hours
# Method: as §3, §4
# [9] = system: mice; assay: Toxicity in mice after oral gavage for 14 days; assay type: in vivo; details: oral gavage 5 g/kg once per day for 14 days, plus 14 days observation
# Method: as §2
# [10] = system: L1210 cells; assay: Intracellular nucleotide formation and incorporation into DNA; assay type: cell-based, murine; details: L1210, 10 μM FAU for 24 hours; incorporated as FMAU
# Method: as §3
# (§5) All cell lines, except for L1210, were resuspended in fresh media at 300,000 cells/mL with appropriate amount of radioactive drug. L1210 cells were resuspended at 150,000 cells/mL. […] Soluble nucleotides were determined for each cell line following exposure to 10 μM FAU. Incorporation of FAU into DNA (as FMAU) was determined over a range of FAU concentrations from 1 μM to 1 mM. […] These bases and soluble nucleotides were determined by previously reported HPLC-based methods as noted by Klecker et al. in the previously mentioned reference, “Toxicity, Metabolism, DNA Incorporation with Lack of Repair, and Lactate Production for 1-(2′-fluoro-2′-deoxy-β-D-arabinofuranosyl)-5-iodouracil in U-937 and MOLT-4-cells.” Drug incorporation into cellular DNA was determined using the equation: percent incorporation=100×([drug]/([dThd]+[drug]).
# [11] = system: CEM, MOLT-4, RAJI, U-937, K-562 and L1210 cells; assay: Intracellular nucleotide formation, all cell lines; assay type: cell-based, human; murine; details: incubation with 10 μM FAU for 24 hours
# Method: as §3, §5
# [12] = system: L1210 cells; assay: Growth inhibition, 72-hr continuous exposure; assay type: cell-based, murine; details: L1210, 100 μM, 72 hours continuous incubation
# Method: as §3
# (§6) All cell lines, except for L1210, were suspended in fresh media at 30,000 cells/mL. L1210 cells were suspended at 10,000 cells/mL. Cells, 2 mL, were added to each of the wells of 24-well plates and incubated with either 0 to 1000 μM of FAU or 0 to 300 μM of FMAU. Incubation was conducted at 37° C. in a humidified 5% CO2 atmosphere for 72 hours. Inhibition of cellular growth was assessed by cell counting (Elzone 180, Particle Data, Inc., Elmhurst, IL). Under these conditions, the control doubling times for CEM, MOLT-4, RAJI, U-937, and K-562 cells were 21-22 hours, while the doubling times for L1210 was 8-10 hours.
# [13] = system: CEM, MOLT-4, RAJI, U-937, K-562 and L1210 cells; assay: Growth inhibition, 72-hr continuous exposure, all cell lines; assay type: cell-based, human; murine
# Method: as §3, §6
# [14] = system: MOLT-4 cells; assay: Growth inhibition, 72-hr continuous exposure; assay type: cell-based, human; details: MOLT-4, 100 μM, 72 hours continuous incubation
# Method: as §3, §6
# [15] = system: CEM cells; assay: Growth inhibition, 72-hr continuous exposure; assay type: cell-based, human; details: 100 μM, 72 hours continuous incubation
# Method: as §3, §6
# [16] = system: RAJI cells; assay: Growth inhibition, 72-hr continuous exposure; assay type: cell-based, human; details: 100 μM, 72 hours continuous incubation
# Method: as §3, §6
# [17] = system: U-937 cells; assay: Growth inhibition, 72-hr continuous exposure; assay type: cell-based, human; details: U-937, 100 μM, 72 hours continuous incubation
# Method: as §3, §6
# [18] = system: K-562 cells; assay: Growth inhibition, 72-hr continuous exposure; assay type: cell-based, human; details: K-562, 100 μM, 72 hours continuous incubation
# Method: as §3, §6
# T1 sequence (P04818 whole entry): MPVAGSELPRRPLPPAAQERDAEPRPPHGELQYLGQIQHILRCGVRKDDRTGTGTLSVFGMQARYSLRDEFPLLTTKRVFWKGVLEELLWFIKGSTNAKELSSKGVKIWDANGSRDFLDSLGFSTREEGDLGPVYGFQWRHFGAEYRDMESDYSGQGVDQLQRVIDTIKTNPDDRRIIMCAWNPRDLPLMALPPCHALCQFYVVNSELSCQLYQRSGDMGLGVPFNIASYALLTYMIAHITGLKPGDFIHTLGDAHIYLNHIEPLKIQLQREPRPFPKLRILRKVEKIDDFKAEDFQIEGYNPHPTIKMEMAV
compound,measurement,setting,value
"O=c1ccn([C@@H]2O[C@H](COP(=O)(O)O)[C@@H](O)[C@@H]2F)c(=O)[nH]1 [FAUMP, FAU monophosphate]",rate of conversion to FMAUMP as % of the rate of dTMP formation from dUMP,[1],0.97-1.5%
same,rate of conversion to FMAUMP as % of the rate of dTMP formation from dUMP,[2],about 1%
"O=c1ccn([C@@H]2O[C@H](CO)[C@@H](O)[C@@H]2F)c(=O)[nH]1 [FAU, 1-(2′Fluoro-2′deoxy-β-D-arabinofuranosyl)-uracil]","FAU concentration in plasma, maximum level",[3],750 µM
same,"FAU concentration in plasma, minimum level",[3],50 µM
same,FMAUTP formed intracellularly,[4],1.92 ± 0.55 nmol/10^6 cells
same,DNA % incorp,[4]; incorporated as FMAU,0.19 ± 0.01%
same,FAUMP formed intracellularly,[5],0.96 ± 0.24 nmol/10^6 cells
same,FMAUTP formed intracellularly,[5],2.30 ± 0.28 nmol/10^6 cells
same,DNA % incorp,[5]; incorporated as FMAU,0.81 ± 0.10%
same,FAUMP formed intracellularly,[6],0.95 ± 0.17 nmol/10^6 cells
same,DNA % incorp,[6]; incorporated as FMAU,0.09 ± 0.002%
same,FAUMP formed intracellularly,[7],2.70 ± 0.69 nmol/10^6 cells
same,FMAUTP formed intracellularly,[7],1.99 ± 0.08 nmol/10^6 cells
same,DNA % incorp,[7]; incorporated as FMAU,0.50 ± 0.02%
same,FAUMP formed intracellularly,[8],11.1 ± 0.9 nmol/10^6 cells
same,DNA % incorp,[8]; incorporated as FMAU,0.22 ± 0.002%
same,histopathologic examination of murine tissues (toxicity),[9],no toxicity attributable to the drug treatment
same,DNA % incorp,[10],0.08 ± 0.005%
same,amounts of FMAUMP or FMAUDP found intracellularly,[11],trace amounts
same,growth inhibition,[12],completely uninhibited
same,IC50 values relative to FMAU (fold higher),[13],10 fold
same,growth inhibition,[14],somewhat less inhibited
same,growth inhibition,[15],more than 50%
same,growth inhibition,[16],completely uninhibited
same,growth inhibition,[17],more than 50%
same,growth inhibition,[18],somewhat less inhibited
